Where a SMILES comes first, the peptide text is derived from it. [ ]: non-standard residue; d: D form. ξ: configuration not given here. Ile(3ξ) = CCC(C)[C@H](N)C(=O)O
Molecular target: T1, Pituitary adenylate cyclase-activating polypeptide (Rattus norvegicus, UniProt P13589)
T1 sequence (P13589 whole entry): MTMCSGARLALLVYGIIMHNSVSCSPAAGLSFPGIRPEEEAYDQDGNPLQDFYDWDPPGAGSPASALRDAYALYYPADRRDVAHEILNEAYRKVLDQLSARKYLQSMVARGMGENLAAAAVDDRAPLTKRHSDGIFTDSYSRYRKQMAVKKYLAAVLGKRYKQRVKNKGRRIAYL

Compound | Ki [µM]
CC[C@H](C)[C@H](NC(=O)CNC(=O)[C@H](CC(=O)O)NC(=O)[C@H](CO)NC(=O)[C@@H](N)Cc1ccccc1)C(=O)N[C@@H](Cc1ccccc1)C(=O)N[C@H](C(=O)N[C@@H](CC(=O)O)C(=O)N[C@@H](CO)C(=O)N[C@@H](Cc1ccc(O)cc1)C(=O)N[C@@H](CO)C(=O)N[C@@H](CCCN=C(N)N)C(=O)N[C@@H](Cc1ccc(O)cc1)C(=O)N[C@@H](CCCN=C(N)N)C(=O)N[C@@H](CCCCN)C(=O)N[C@@H](CCC(N)=O)C(=O)N[C@@H](CCSC)C(=O)N[C@@H](C)C(=O)N[C@H](C(=O)N[C@@H](CCCCN)C(=O)N[C@@H](CCCCN)C(=O)N[C@@H](Cc1ccc(O)cc1)C(=O)N[C@@H](CC(C)C)C(=O)N[C@@H](C)C(=O)N[C@@H](C)C(=O)N[C@H](C(=O)N[C@@H](CC(C)C)C(N)=O)C(C)C)C(C)C)[C@@H](C)O [[Phe1]PACAP(1-27)] | 0.6
H-DSYSRYRKQMAVKKYLAAVLGKRYKQRVKNK-NH2 [PACAP(8-38)] | 0.03
H-FTDSYSRYRKQMAVKKYLAAVL-NH2 [PACAP(5-27)] | 1
H-SRYRKQMAVKKYLAAVL-NH2 [PACAP(11-27)] | 6
H-SYSRYRKQMAVKKYLAAVL-NH2 [PACAP(9-27)] | 2
H-SYSRYRKQMAVKKYLAAVLGKRYKQRVKNK-NH2 [PACAP(9-38)] | 0.03
H-TDSYSRYRKQMAVKKYLAAVLGKRYKQRVKNK-NH2 [PACAP(7-38)] | 0.01

The remaining compounds from weak to strong by Ki, led by results:

Ki [µM] | Compound
3 | H-TDSYSRYRKQMAVKKYLAAVL-NH2 [PACAP(6-27)]
0.5 | CC[C@H](C)[C@H](NC(=O)CNC(=O)[C@H](CC(=O)O)NC(=O)[C@@H](CCCN=C(N)N)NC(=O)[C@@H](N)Cc1cnc[nH]1)C(=O)N[C@@H](Cc1ccccc1)C(=O)N[C@H](C(=O)N[C@@H](CC(=O)O)C(=O)N[C@@H](CO)C(=O)N[C@@H](Cc1ccc(O)cc1)C(=O)N[C@@H](CO)C(=O)N[C@@H](CCCN=C(N)N)C(=O)N[C@@H](Cc1ccc(O)cc1)C(=O)N[C@@H](CCCN=C(N)N)C(=O)N[C@@H](CCCCN)C(=O)N[C@@H](CCC(N)=O)C(=O)N[C@@H](CCSC)C(=O)N[C@@H](C)C(=O)N[C@H](C(=O)N[C@@H](CCCCN)C(=O)N[C@@H](CCCCN)C(=O)N[C@@H](Cc1ccc(O)cc1)C(=O)N[C@@H](CC(C)C)C(=O)N[C@@H](C)C(=O)N[C@@H](C)C(=O)N[C@H](C(=O)N[C@@H](CC(C)C)C(N)=O)C(C)C)C(C)C)[C@@H](C)O [[DArg2]PACAP(1-27)]
0.3 | H-FTDSYSRYRKQMAVKKYLAAVLGKRYKQRV-NH2 [PACAP(6-35)]
0.1 | H-SRYRKQMAVKKYLAAVLGKRYKQRVKNK-NH2 [PACAP(11-38)]
0.09 | H-YSRYRKQMAVKKYLAAVLGKRYKQRVKNK-NH2 [PACAP(10-38)]
0.06 | CCC(C)[C@H](NC(=O)CNC(=O)[C@H](CC(=O)O)NC(=O)[C@H](Cc1ccccc1)NC(=O)[C@@H](N)Cc1cnc[nH]1)C(=O)N[C@@H](Cc1ccccc1)C(=O)N[C@H](C(=O)N[C@@H](CC(=O)O)C(=O)N[C@@H](CO)C(=O)N[C@@H](Cc1ccc(O)cc1)C(=O)N[C@@H](CO)C(=O)N[C@@H](CCCN=C(N)N)C(=O)N[C@@H](Cc1ccc(O)cc1)C(=O)N[C@@H](CCCN=C(N)N)C(=O)N[C@@H](CCCCN)C(=O)N[C@@H](CCC(N)=O)C(=O)N[C@@H](CCSC)C(=O)N[C@@H](C)C(=O)N[C@H](C(=O)N[C@@H](CCCCN)C(=O)N[C@@H](CCCCN)C(=O)N[C@@H](Cc1ccc(O)cc1)C(=O)N[C@@H](CC(C)C)C(=O)N[C@@H](C)C(=O)N[C@@H](C)C(=O)N[C@H](C(=O)N[C@@H](CC(C)C)C(N)=O)C(C)C)C(C)C)[C@@H](C)O (stereo partly specified) [[Phe2]PACAP(1-27)]
0.01 | CC[C@H](C)[C@H](NC(=O)CNC(=O)[C@H](CC(=O)O)NC(=O)[C@@H](CCCN=C(N)N)NC(=O)[C@@H](N)Cc1cnc[nH]1)C(=O)N[C@@H](Cc1ccccc1)C(=O)N[C@H](C(=O)N[C@@H](CC(=O)O)C(=O)N[C@@H](CO)C(=O)N[C@@H](Cc1ccc(O)cc1)C(=O)N[C@@H](CO)C(=O)N[C@@H](CCCN=C(N)N)C(=O)N[C@@H](Cc1ccc(O)cc1)C(=O)N[C@@H](CCCN=C(N)N)C(=O)N[C@@H](CCCCN)C(=O)N[C@@H](CCC(N)=O)C(=O)N[C@@H](CCSC)C(=O)N[C@@H](C)C(=O)N[C@H](C(=O)N[C@@H](CCCCN)C(=O)N[C@@H](CCCCN)C(=O)N[C@@H](Cc1ccc(O)cc1)C(=O)N[C@@H](CC(C)C)C(=O)N[C@@H](C)C(=O)N[C@@H](C)C(=O)N[C@H](C(=O)N[C@@H](CC(C)C)C(=O)NCC(=O)N[C@@H](CCCCN)C(=O)N[C@@H](CCCN=C(N)N)C(=O)N[C@@H](Cc1ccc(O)cc1)C(=O)N[C@@H](CCCCN)C(=O)N[C@@H](CCC(N)=O)C(=O)N[C@@H](CCCN=C(N)N)C(=O)N[C@H](C(=O)N[C@@H](CCCCN)C(=O)N[C@@H](CC(N)=O)C(=O)N[C@@H](CCCCN)C(N)=O)C(C)C)C(C)C)C(C)C)[C@@H](C)O [[DArg2]PACAP(1-38)]
0.002 | CCC(C)[C@H](NC(=O)CNC(=O)[C@H](CC(=O)O)NC(=O)[C@H](Cc1ccccc1)NC(=O)[C@@H](N)Cc1cnc[nH]1)C(=O)N[C@@H](Cc1ccccc1)C(=O)N[C@H](C(=O)N[C@@H](CC(=O)O)C(=O)N[C@@H](CO)C(=O)N[C@@H](Cc1ccc(O)cc1)C(=O)N[C@@H](CO)C(=O)N[C@@H](CCCN=C(N)N)C(=O)N[C@@H](Cc1ccc(O)cc1)C(=O)N[C@@H](CCCN=C(N)N)C(=O)N[C@@H](CCCCN)C(=O)N[C@@H](CCC(N)=O)C(=O)N[C@@H](CCSC)C(=O)N[C@@H](C)C(=O)N[C@H](C(=O)N[C@@H](CCCCN)C(=O)N[C@@H](CCCCN)C(=O)N[C@@H](Cc1ccc(O)cc1)C(=O)N[C@@H](CC(C)C)C(=O)N[C@@H](C)C(=O)N[C@@H](C)C(=O)N[C@H](C(=O)N[C@@H](CC(C)C)C(=O)NCC(=O)N[C@@H](CCCCN)C(=O)N[C@@H](CCCN=C(N)N)C(=O)N[C@@H](Cc1ccc(O)cc1)C(=O)N[C@@H](CCCCN)C(=O)N[C@@H](CCC(N)=O)C(=O)N[C@@H](CCCN=C(N)N)C(=O)N[C@H](C(=O)N[C@@H](CCCCN)C(=O)N[C@@H](CC(N)=O)C(=O)N[C@@H](CCCCN)C(N)=O)C(C)C)C(C)C)C(C)C)[C@@H](C)O (stereo partly specified) [[Phe2]PACAP(1-38)] (H-HFDG[Ile(3ξ)]FTDSYSRYRKQMAVKKYLAAVLGKRYKQRVKNK-NH2)
0.0007 | CCC(C)[C@H](NC(=O)CNC(=O)[C@H](CC(=O)O)NC(=O)[C@@H](C)NC(=O)[C@@H](N)Cc1cnc[nH]1)C(=O)N[C@@H](Cc1ccccc1)C(=O)N[C@H](C(=O)N[C@@H](CC(=O)O)C(=O)N[C@@H](CO)C(=O)N[C@@H](Cc1ccc(O)cc1)C(=O)N[C@@H](CO)C(=O)N[C@@H](CCCN=C(N)N)C(=O)N[C@@H](Cc1ccc(O)cc1)C(=O)N[C@@H](CCCN=C(N)N)C(=O)N[C@@H](CCCCN)C(=O)N[C@@H](CCC(N)=O)C(=O)N[C@@H](CCSC)C(=O)N[C@@H](C)C(=O)N[C@H](C(=O)N[C@@H](CCCCN)C(=O)N[C@@H](CCCCN)C(=O)N[C@@H](Cc1ccc(O)cc1)C(=O)N[C@@H](CC(C)C)C(=O)N[C@@H](C)C(=O)N[C@@H](C)C(=O)N[C@H](C(=O)N[C@@H](CC(C)C)C(=O)NCC(=O)N[C@@H](CCCCN)C(=O)N[C@@H](CCCN=C(N)N)C(=O)N[C@@H](Cc1ccc(O)cc1)C(=O)N[C@@H](CCCCN)C(=O)N[C@@H](CCC(N)=O)C(=O)N[C@@H](CCCN=C(N)N)C(=O)N[C@H](C(=O)N[C@@H](CCCCN)C(=O)N[C@@H](CC(N)=O)C(=O)N[C@@H](CCCCN)C(N)=O)C(C)C)C(C)C)C(C)C)[C@@H](C)O (stereo partly specified) [[DAla2]PACAP(1-38)]
